From ChEMBL document CHEMBL1129102, “Design, synthesis, and evaluation of fibrinogen inhibitors, -(p-amidinophenoxy) alkanoylaspartic acid derivatives” (Bioorg Med Chem Lett, 1996) come the findings set out here.

Integrin alpha-IIb/beta-3, sequence (P05106 27-788 limits assumed): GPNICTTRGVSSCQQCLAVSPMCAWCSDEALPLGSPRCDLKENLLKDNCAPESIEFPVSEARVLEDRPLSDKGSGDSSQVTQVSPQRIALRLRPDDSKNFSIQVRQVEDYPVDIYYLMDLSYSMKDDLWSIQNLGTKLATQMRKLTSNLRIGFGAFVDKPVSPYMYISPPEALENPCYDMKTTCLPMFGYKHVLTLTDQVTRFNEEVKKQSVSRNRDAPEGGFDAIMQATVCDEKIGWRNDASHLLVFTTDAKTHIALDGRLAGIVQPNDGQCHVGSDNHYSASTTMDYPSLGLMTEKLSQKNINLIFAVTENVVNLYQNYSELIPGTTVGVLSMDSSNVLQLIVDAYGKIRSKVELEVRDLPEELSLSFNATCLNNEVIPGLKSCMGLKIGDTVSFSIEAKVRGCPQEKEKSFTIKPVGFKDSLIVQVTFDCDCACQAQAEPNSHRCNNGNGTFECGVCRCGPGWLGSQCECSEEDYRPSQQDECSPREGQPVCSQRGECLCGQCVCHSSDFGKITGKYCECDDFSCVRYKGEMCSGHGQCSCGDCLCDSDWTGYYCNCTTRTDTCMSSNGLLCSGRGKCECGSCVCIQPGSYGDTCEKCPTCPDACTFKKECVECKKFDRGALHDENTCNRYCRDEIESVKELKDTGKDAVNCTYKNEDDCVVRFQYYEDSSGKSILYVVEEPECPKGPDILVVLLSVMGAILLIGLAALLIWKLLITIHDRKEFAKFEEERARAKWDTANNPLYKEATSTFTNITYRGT
Integrin alpha-IIb/beta-3, sequence (P08514 32-887 limits assumed): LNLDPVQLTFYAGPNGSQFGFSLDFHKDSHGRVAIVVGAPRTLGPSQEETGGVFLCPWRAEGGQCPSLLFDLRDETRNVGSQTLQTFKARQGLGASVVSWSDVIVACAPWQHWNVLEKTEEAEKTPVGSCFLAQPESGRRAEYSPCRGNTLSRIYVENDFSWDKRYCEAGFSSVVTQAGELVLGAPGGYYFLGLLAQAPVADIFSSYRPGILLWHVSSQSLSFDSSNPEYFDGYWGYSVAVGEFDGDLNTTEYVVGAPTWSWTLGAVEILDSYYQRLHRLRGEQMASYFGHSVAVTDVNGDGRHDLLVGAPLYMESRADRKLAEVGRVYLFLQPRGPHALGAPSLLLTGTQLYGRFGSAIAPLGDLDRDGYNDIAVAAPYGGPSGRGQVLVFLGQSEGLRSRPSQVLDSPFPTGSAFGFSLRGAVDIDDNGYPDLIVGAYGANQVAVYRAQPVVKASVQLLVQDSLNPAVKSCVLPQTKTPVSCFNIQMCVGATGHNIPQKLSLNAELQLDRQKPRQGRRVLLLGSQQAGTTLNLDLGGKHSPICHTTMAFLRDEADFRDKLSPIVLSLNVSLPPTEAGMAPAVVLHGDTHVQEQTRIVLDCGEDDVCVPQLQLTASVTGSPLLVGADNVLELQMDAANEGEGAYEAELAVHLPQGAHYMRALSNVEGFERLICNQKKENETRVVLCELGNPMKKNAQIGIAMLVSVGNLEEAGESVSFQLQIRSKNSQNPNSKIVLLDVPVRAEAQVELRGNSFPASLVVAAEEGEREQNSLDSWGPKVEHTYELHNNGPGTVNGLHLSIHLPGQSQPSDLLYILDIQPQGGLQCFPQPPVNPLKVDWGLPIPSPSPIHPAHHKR
Integrin alpha-IIb/beta-3, sequence (P08514 891-1039 limits assumed): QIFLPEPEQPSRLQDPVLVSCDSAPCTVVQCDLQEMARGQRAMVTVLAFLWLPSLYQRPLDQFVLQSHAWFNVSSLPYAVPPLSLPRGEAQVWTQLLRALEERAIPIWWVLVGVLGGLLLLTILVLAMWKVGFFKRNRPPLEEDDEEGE

The test has as its target Integrin alpha-IIb/beta-3 (Homo sapiens, UniProt P05106+P08514). As to the kind of experiment: Inhibition of human platelet adhesion to fibrinogen.
Consider `CN(C(=O)[C@H](CC(=O)O)NC(=O)CCCCOc1ccc(C(=N)N)cc1)[C@@H](Cc1ccc(O)cc1)C(=O)O`, for which the IC50 (commonly the point on the concentration scale where inhibition reaches its midpoint) was 270 nM.

On to `N=C(N)c1ccc(OCCCCC(=O)N[C@@H](CC(=O)O)C(=O)N[C@@H](Cc2ccc(O)cc2)C(=O)O)cc1`, for which the IC50 was determined as 640 nM. Turning to `CC(C)[C@H](NC(=O)[C@H](CC(=O)O)NC(=O)CCCCOc1ccc(C(=N)N)cc1)C(=O)O`, the IC50 was determined as 230 nM.

`CC(C)[C@H](NC(=O)[C@H](CC(=O)O)NC(=O)CCCOc1ccc(C(=N)N)cc1)C(=O)O` showed an IC50 of 88 nM. Against the preceding molecule, the IC50 is about 2.6-fold lower.
